Like-named read-outs stand apart in the source and are kept apart here.
Columns and labels:
Molm-13 cells = test: Inhibition of proliferation of Molm-13 cells (CCK-8); type: cell-based; details: Homo sapiens, 72 h, mean±standard deviation of two independent tests
Experimental: [Worded in the source for another cell line; this cell line is reported under the same test.] (§1) 12000 g of compounds were centrifuged for 5 min, DMSO was added to make a 10^−2M stock solution, vortexed uniformly and sonicated for 10 min for standby application, and stored at −40° C. The compounds were diluted from the stock solution with saline to 10 times the concentration to be tested (concentration of DMSO in the system being no more than 0.5%) during the test.
(§2) The inhibitory effect of the compounds on the proliferation of MV4-11 cells was detected using a CCK-8 cell counting kit (Dojindo). The specific steps are as follows: the MV4-11 cells in logarithmic growth phase were seeded into a 96-well culture plate at a suitable density in 90 μL/well, cultured overnight, compounds at different concentrations were then added and acted on cells for 72 hr, and the solvent control group (negative control) was set up. The effect of the compounds on cell proliferation was detected using a CCK-8 cell counting kit (Dojindo) after the compounds had acted on the cells for 72 h. 10 μL of CCK-8 reagent was added to each well, same was placed in an incubator at 37° C. for 2-4 hours, and the reading from the full-wavelength microwell plate ELIASA SpectraMax 190 was performed with a wavelength of 450 nm.
(§3) IC50 value was calculated using a software included with ELIASA by the four-parameter regression.
(§4) IC50 for the inhibition of the compounds on each stain of cells was derived from two independent repeated tests, and the results are shown as the mean±standard deviation.

MV4-11 cells = test: Inhibition of proliferation of MV4-11 cells (CCK-8); type: cell-based; details: Homo sapiens, 72 h, mean±standard deviation of two independent tests
Experimental: as §1, §2, §3, §4

AXL kinase = target: T1, AXL kinase (Homo sapiens, UniProt P30530); test: IC50 test on AXL kinase (Z′-LYTE FRET kinase activity detection); type: biochemical; details: for IC50: Z′-LYTE FRET peptide assay, 1 h reaction
T1 construct: purchased Invitrogen PV4803
T1 sequence (P30530 26-894): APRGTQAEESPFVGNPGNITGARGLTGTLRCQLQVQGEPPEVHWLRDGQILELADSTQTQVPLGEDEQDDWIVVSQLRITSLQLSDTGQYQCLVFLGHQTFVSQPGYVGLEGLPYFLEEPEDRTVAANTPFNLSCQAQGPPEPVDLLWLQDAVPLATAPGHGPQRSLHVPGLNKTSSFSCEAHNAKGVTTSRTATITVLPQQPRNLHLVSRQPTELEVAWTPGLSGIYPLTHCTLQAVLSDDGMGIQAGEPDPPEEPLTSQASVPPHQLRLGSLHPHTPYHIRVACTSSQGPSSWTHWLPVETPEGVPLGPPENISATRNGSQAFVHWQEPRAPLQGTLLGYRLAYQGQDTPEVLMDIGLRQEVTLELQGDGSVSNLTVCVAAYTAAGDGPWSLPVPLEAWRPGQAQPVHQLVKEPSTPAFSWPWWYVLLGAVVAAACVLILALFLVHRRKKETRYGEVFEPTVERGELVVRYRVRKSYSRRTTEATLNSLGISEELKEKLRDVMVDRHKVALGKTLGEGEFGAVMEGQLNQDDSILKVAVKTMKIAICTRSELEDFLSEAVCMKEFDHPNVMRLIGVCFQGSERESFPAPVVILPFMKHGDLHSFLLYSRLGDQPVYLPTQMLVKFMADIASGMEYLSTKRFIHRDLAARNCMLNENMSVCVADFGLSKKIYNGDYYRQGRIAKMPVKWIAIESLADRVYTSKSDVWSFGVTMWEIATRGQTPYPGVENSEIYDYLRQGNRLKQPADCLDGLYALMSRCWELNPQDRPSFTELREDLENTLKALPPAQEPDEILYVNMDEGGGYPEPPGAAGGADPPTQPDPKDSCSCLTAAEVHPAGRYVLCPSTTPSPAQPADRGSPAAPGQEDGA
In short: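 AXL kinase with Z′-LYTE Tyr 2 FRET peptide, ATP and graded compound concentrations reacted 1 h, then site-specific protease cleaved non-phosphorylated peptide for 1 h. Emission at 445 and 520 nm with 400 nm excitation gave the IC50.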

[1] = target: T2, FLT-3 kinase domain recombinant protein (Homo sapiens, UniProt P36888); test: Inhibition rate on FLT3 kinase (ELISA); type: biochemical; details: two values per compound; for inhibition at 0.01 µM / inhibition at 0.1 µM / inhibition at 1 µM: read-out: Inhibition rate (%) against receptor tyrosine kinase FLT-3
T2 construct: 50 μL FLT-3 kinase domain recombinant protein diluted with reaction buffer to initiate the reaction
T2 sequence (P36888 610-943 limits assumed): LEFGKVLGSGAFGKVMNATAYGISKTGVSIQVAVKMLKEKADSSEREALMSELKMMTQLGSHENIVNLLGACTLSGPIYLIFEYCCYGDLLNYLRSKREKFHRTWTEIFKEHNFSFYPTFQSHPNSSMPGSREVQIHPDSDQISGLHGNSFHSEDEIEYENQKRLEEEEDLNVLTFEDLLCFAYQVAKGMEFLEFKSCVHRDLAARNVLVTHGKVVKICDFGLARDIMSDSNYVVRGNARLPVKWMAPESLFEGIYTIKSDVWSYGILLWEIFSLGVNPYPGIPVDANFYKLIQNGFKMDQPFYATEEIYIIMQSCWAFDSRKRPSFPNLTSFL
Experimental: Conventional enzyme-linked immunosorbent assay (ELISA) method is used, and the specific steps are as follows
12,000 g of compounds were centrifuged for 5 min, DMSO was added to make a 10^−2M stock solution, vortexed uniformly and sonicated for 10 min for standby application, and stored at −40° C. The compounds were diluted from the stock solution with DMSO to 100 times the concentration to be tested (concentration of DMSO in the system being 1%) during the test.
1. The enzyme reaction substrate Poly (Glu, Tyr) 4:1 was diluted to 20 μg/mL with potassium-free PBS (10 mM sodium phosphate buffer, 150 mM NaCl, pH 7.2-7.4), the ELISA plate was coated with same in 125 μL/well, and reacted at 37° C. for 12-16 hours, the liquid in wells was discarded, the plate was washed three times, for 5 minutes each time, with T-PBS (potassium-free PBS with 0.1% Tween-20, 200 μL/well), and the ELISA plate was dried in an oven at 37° C. for 1-2 hours.
2. To each well were added 49 μL of ATP solution diluted with reaction buffer (50 mM HEPES pH 7.4, 50 mM MgCl2, 0.5 mM MnCl2, 0.2 mM Na3VO4, 1 mM DTT), 1 μL of compounds to be tested, and 50 μL FLT-3 kinase domain recombinant protein diluted with reaction buffer to initiate the reaction (two ATP-free control wells are required for each experiment). Subject to a shaker (100 rpm) at 37° C. and reacted for 1 hour. The liquid in wells was discarded, and the plate was washed three times with T-PBS.
3. Antibody PY99 diluent (the antibody was diluted in 1:500 with T-PBS which contains 5 mg/mL BSA) was added in 100 μL/well, subjected same to a shaker at 37° C. and reacted for 0.5 hour. The liquid in wells was discarded, and the plate was washed three times with T-PBS.
4. Horseradish peroxidase labeled goat anti-mouse secondary antibody diluent (the antibody was diluted in 1:2000 with T-PBS which contains 5 mg/ml BSA) was added in 100 μL/well, subjected same to a shaker at 37° C. and reacted for 0.5 hour. The liquid in wells was discarded, and the plate was washed three times with T-PBS.
5. 2 mg/ml of OPD developing solution (diluted with 0.1 M citric acid-sodium citrate buffer which contains 0.03% H2O2 (pH=5.4)) was added in 100 μL/well, and reacted at 25° C. in the dark for 1-10 minutes.
6. 2 M H2SO4 was added in 50 μL/well to stop the reaction, and the reading from the wavelength-adjustable microwell plate ELIASA VERSAmax was performed with a wavelength of 490 nm.

[2] = In vivo pharmacokinetic and bioavailability experiments of rats; design: species or system SD rats; details: for bioavailability / AUC(0-inf) / AUC(0-t) / half-life / Cmax / clearance: Sprague-Dawley, rat, plasma; for bioavailability: po, 25 mg/kg, read-out: F (oral bioavailability); for Cmax: read-out: Cmax
Experimental: Pharmacokinetic and bioavailability experiments of rats. SD rats were administered orally (25 mg/kg) and intravenously (2.5 to 5 mg/kg) at a single dose. Animal blood samples were taken at appropriate time points after administration, heparin was added as anticoagulant, and same were centrifuged at 8000 rpm/min for 6 minutes, the supernatant was then taken and stored at −20° C. for HPLC-MS analysis. The proteins in blood samples were precipitated with acetonitrile at 12000 rpm for 10 min, and the supernatant was used for HPCL-MS analysis. Data were fit using DAS2.0 to obtain compartmental model and non-compartmental model parameters, respectively. The oral bioavailability of each compound was calculated according to AUC data.

[3] = SD rats, Po, 25 mg/kg single dose
[4] = SD rats, iv, 5 mg/kg single dose

CC(C)(C)c1cc(NC(=O)Nc2ccc(-c3cn4c(n3)sc3cc(OCCN5CCOCC5)ccc34)cc2)no1 [AC220, reference compound]
IC50 (Molm-13 cells): 19.5 ± 2.7 nM | IC50 (MV4-11 cells): < 2 nM

COc1cc2ncnc(Oc3ccc(NC(=O)c4cn5c6c(c(N7CCN(C)CC7)c(F)cc6c4=O)OCN5C)cc3F)c2cc1OC [TL4830039, N-(4-((6,7-dimethoxyquinazolin-4-yl)oxy)-3-fluorophenyl)-9-fluoro-3-methyl-10-(4-methylpiperazin-1-yl)-7-oxo-2,3-dihydro-7H-[1,3,4] oxadiazino[6,5,4-ij]quinoline-6-carboxamide]
IC50 (AXL kinase): 58 nM | Inhibition rate (%) against receptor tyrosine kinase FLT-3 ([1]; compound 10 nM, 0.01 µM): 49.8% | inhibition at 0.01 µM ([1]; compound 10 nM): 44.7% | Inhibition rate (%) against receptor tyrosine kinase FLT-3 ([1]; compound 100 nM, 0.1 µM): 57.4% | inhibition at 0.1 µM ([1]; compound 100 nM): 66.4% | Inhibition rate (%) against receptor tyrosine kinase FLT-3 ([1]; compound 1000 nM, 1 µM): 80.9% | inhibition at 1 µM ([1]; compound 1000 nM): 87.6% | bioavailability [2]: 7.92% | AUC(0-inf) [2, 3]: 12200 ng·h/mL | AUC(0-t) [2, 3]: 3800 ng·h/mL | half-life [2, 3]: 35.5 h | Cmax [2, 3]: 219 ng/mL | AUC(0-inf) [2, 4]: 13000 ng·h/mL | AUC(0-t) [2, 4]: 9600 ng·h/mL | clearance [2, 4]: 6.5 mL/min/kg | half-life [2, 4]: 12.7 h | Cmax [2, 4]: 1140 ng/mL

COc1cc2ncnc(Oc3ccc(NC(=O)c4cn(-c5ccc(F)cc5)c5cc(N6CCNCC6)c(F)cc5c4=O)cc3F)c2cc1OC [TL4830042, N-(4-(6,7-dimethoxyquinazolin-4-yloxy)-3-fluorophenyl)-6-fluoro-1-(4-fluorophenyl)-4-oxo-7-(piperazin-1-yl)-1,4-dihydroquinoline-3-carboxamide]
IC50 (AXL kinase): 38 nM | Inhibition rate (%) against receptor tyrosine kinase FLT-3 ([1]; compound 10 nM, 0.01 µM): 40.0% | inhibition at 0.01 µM ([1]; compound 10 nM): 52.3% | Inhibition rate (%) against receptor tyrosine kinase FLT-3 ([1]; compound 100 nM, 0.1 µM): 44.5% | inhibition at 0.1 µM ([1]; compound 100 nM): 53.8% | Inhibition rate (%) against receptor tyrosine kinase FLT-3 ([1]; compound 1000 nM, 1 µM): 87.0% | inhibition at 1 µM ([1]; compound 1000 nM): 92.3% | bioavailability [2]: 0.2% | AUC(0-inf) [2, 3]: 151 ng·h/mL | AUC(0-t) [2, 3]: 98.9 ng·h/mL | half-life [2, 3]: 14.5 h | Cmax [2, 3]: 7.15 ng/mL | AUC(0-inf) [2, 4]: 15200 ng·h/mL | AUC(0-t) [2, 4]: 9780 ng·h/mL | clearance [2, 4]: 5.83 mL/min/kg | half-life [2, 4]: 15.8 h | Cmax [2, 4]: 885 ng/mL

CCc1ccc2c(c1)c(=O)c(C(=O)Nc1ccc(Oc3ncnc4cc(OCCN5CCCC5)c(OC)cc34)c(F)c1)c(C)n2C [TL4830058, 6-ethyl-N-(3-fluoro-4-((6-methoxy-7-(2-(pyrrolidin-1-yl)ethoxy)quinazolin-4-yl)oxy)phenyl)-1,2-dimethyl-4-oxo-1,4-dihydroquinoline-3-carboxamide]
IC50 (AXL kinase): 8 nM | Inhibition rate (%) against receptor tyrosine kinase FLT-3 ([1]; compound 10 nM, 0.01 µM): 49.4% | inhibition at 0.01 µM ([1]; compound 10 nM): 54.7% | Inhibition rate (%) against receptor tyrosine kinase FLT-3 ([1]; compound 100 nM, 0.1 µM): 75.8% | inhibition at 0.1 µM ([1]; compound 100 nM): 74% | Inhibition rate (%) against receptor tyrosine kinase FLT-3 ([1]; compound 1000 nM, 1 µM): 92.3% | inhibition at 1 µM ([1]; compound 1000 nM): 95.2% | pharmacokinetic parameter, overall judgement ([2]; SD rats, hydrochlorides, in words): appropriate pharmacokinetic parameter | bioavailability [2]: 28% | AUC(0-inf) [2, 3]: 50300 ng·h/mL | AUC(0-t) [2, 3]: 39700 ng·h/mL | half-life [2, 3]: 11 h | Cmax [2, 3]: 4090 ng/mL | AUC(0-inf) [2, 4]: 28700 ng·h/mL | AUC(0-t) [2, 4]: 28400 ng·h/mL | clearance [2, 4]: 3 mL/min/kg | half-life [2, 4]: 4.05 h | Cmax [2, 4]: 13300 ng/mL

CCc1ccc2c(c1)c(=O)c(C(=O)Nc1ccc(Oc3ncnc4cc(OCCCOC)c(OC)cc34)c(F)c1)c(C)n2C [TL4830073, 6-ethyl-N-(3-fluoro-4-((6-methoxy-7-(3-methoxypropoxy)quinazolin-4-yl)oxy)phenyl)-1,2-dimethyl-4-oxo-1,4-dihydroquinoline-3-carboxamide]
IC50 (AXL kinase): 5 nM | inhibitory activity on AXL kinase (AXL kinase; competitive experiment with ATP, in words): strong inhibitory activity | IC50 (Molm-13 cells): 38.6 ± 18 nM
